{"source": "paper PMC10506422", "about": "(Biomedicine & pharmacotherapy = Biomedecine & …, 2022)", "biological_target": "T1, ABCG2 (Homo sapiens, UniProt Q9UNQ0)", "T1 sequence (Q9UNQ0 1-655)": "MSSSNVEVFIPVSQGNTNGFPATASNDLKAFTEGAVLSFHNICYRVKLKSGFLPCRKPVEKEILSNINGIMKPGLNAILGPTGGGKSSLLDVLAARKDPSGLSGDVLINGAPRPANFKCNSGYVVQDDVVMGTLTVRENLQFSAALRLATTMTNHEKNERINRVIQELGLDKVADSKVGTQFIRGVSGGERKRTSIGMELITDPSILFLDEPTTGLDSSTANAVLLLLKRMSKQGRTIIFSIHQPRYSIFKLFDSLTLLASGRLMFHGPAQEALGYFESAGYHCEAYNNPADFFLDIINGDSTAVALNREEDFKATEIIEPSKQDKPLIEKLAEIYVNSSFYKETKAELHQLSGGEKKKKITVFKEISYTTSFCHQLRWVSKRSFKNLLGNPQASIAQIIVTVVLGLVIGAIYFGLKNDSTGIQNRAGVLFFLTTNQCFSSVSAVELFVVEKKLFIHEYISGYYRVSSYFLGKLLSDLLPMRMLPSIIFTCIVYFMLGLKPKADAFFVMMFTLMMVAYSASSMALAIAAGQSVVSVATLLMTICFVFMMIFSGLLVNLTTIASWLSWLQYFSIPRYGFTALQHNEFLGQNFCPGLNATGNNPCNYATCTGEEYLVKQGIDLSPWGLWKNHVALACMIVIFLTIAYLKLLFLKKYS", "assay": "fluorescent substrate efflux/accumulation by flow cytometry", "format": "cell-based"}
{"molecule": "C=Cc1c(C)c2cc3nc(c4c5[nH]c(cc6nc(cc1[nH]2)C(C)=C6CC)c(C)c5C(=O)[C@@H]4C(=O)OC)[C@@H](CCC(=O)O)[C@@H]3C", "note": "[pheophorbide A]", "values": [{"measurement": "fluorescent substrate efflux/accumulation by flow cytometry (1 μM PhA)", "value": "The intracellular accumulation of pheophorbide A (PhA), a known fluorescent substrate drug of ABCG2, was determined"}]}
